Reference: PubChem BioAssay AID248 (DTP/NCI, 2004)
Toxic doses and inconclusive results are not listed. No stated cut-off is given here; in the data, active means T/C of 150% or more; inactive means T/C below 125%.

System: L1210 leukemia ip in BDF1 mice, survival T/C
Assay: NCI In Vivo Anticancer Drug Screen. Data for tumor model L1210 Leukemia (intraperitoneal) in B6D2F1 (BDF1) mice
Details: endpoint: mean survival time, higher = longer survival
In short: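 Survival endpoint. Drug-treated group vs vehicle group, expressed as T divided by C. Tumor passaged by transplantation.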

[1] = dose: 100.0 mg/kg/injection, schedule: Q04DX003 (ip), vehicle: Klucel (hydroxypropylcellulose) (HPC)
[2] = dose: 200.0 mg/kg/injection, schedule: Q04DX003 (ip), vehicle: Klucel (hydroxypropylcellulose) (HPC)
[3] = dose: 400.0 mg/kg/injection, schedule: Q04DX003 (ip), vehicle: Klucel (hydroxypropylcellulose) (HPC)
[4] = dose: 100.0 mg/kg/injection, schedule: Q01DX001 (ip), vehicle: saline
[5] = dose: 200.0 mg/kg/injection, schedule: Q01DX001 (ip), vehicle: saline
[6] = dose: 400.0 mg/kg/injection, schedule: Q01DX001 (ip), vehicle: saline
[7] = dose: 100.0 mg/kg/injection, schedule: Q01DX009 (ip), vehicle: Klucel (hydroxypropylcellulose) (HPC)
[8] = dose: 200.0 mg/kg/injection, schedule: Q01DX009 (ip), vehicle: Klucel (hydroxypropylcellulose) (HPC)
[9] = dose: 100.0 mg/kg/injection, schedule: Q01DX009 (ip), vehicle: saline with Tween-80
[10] = dose: 200.0 mg/kg/injection, schedule: Q01DX009 (ip), vehicle: saline with Tween-80
[11] = dose: 200.0 mg/kg/injection, schedule: Q01DX009 (ip), vehicle: saline
[12] = dose: 400.0 mg/kg/injection, schedule: Q01DX009 (ip), vehicle: Klucel (hydroxypropylcellulose) (HPC)

Measured: T/C

COc1ccc2c(c1OC)CCN1C3=C(CC(OC(=O)c4ccccc4)CC3)C(=O)CC21 (centres undefined)
inactive: dose: 100.0 mg/kg/injection, schedule: Q01DX001 (ip), vehicle: Klucel (hydroxypropylcellulose) (HPC) 96 % of control | dose: 100.0 mg/kg/injection, schedule: Q01DX009 (ip), vehicle: saline sonified 93 % of control | dose: 200.0 mg/kg/injection, schedule: Q01DX001 (ip), vehicle: Klucel (hydroxypropylcellulose) (HPC) 94 % of control | dose: 200.0 mg/kg/injection, schedule: Q01DX009 (ip), vehicle: saline sonified 95 % of control | dose: 400.0 mg/kg/injection, schedule: Q01DX001 (ip), vehicle: Klucel (hydroxypropylcellulose) (HPC) 97 % of control | dose: 400.0 mg/kg/injection, schedule: Q01DX009 (ip), vehicle: saline sonified 93 % of control

O=C(Cl)C(c1ccccc1)c1ccccc1
inactive: [1] 108 % of control | [2] 98 % of control | [3] 96 % of control

CC1(C)Oc2nc(N)nc(N)c2C1c1ccc(Cl)cc1 (centres undefined)
inactive: [1] 106 % of control | [2] 97 % of control | [3] 103 % of control

O=C(C=C(C(F)(F)F)C(F)(F)F)c1ccccc1Cl
inactive: dose: 12.5 mg/kg/injection, schedule: Q04DX003 (ip), vehicle: saline with Tween-80 97 % of control | dose: 25.0 mg/kg/injection, schedule: Q04DX003 (ip), vehicle: saline with Tween-80 86 % of control | dose: 50.0 mg/kg/injection, schedule: Q04DX003 (ip), vehicle: saline with Tween-80 100 % of control

CCCNC(=O)C1C2CC3OC(=O)C1C3C2 (centres undefined)
inactive: dose: 100.0 mg/kg/injection, schedule: Q04DX003 (ip), vehicle: saline with Tween-80 90 % of control | dose: 100.0 mg/kg/injection, schedule: Q04DX003 (ip), vehicle: saline 98 % of control | dose: 200.0 mg/kg/injection, schedule: Q04DX003 (ip), vehicle: saline with Tween-80 95 % of control | dose: 200.0 mg/kg/injection, schedule: Q04DX003 (ip), vehicle: saline 91 % of control | dose: 400.0 mg/kg/injection, schedule: Q04DX003 (ip), vehicle: saline with Tween-80 93 % of control | dose: 400.0 mg/kg/injection, schedule: Q04DX003 (ip), vehicle: saline 102 % of control

Nc1n[nH]c2cc(=O)[nH]c(O)c12
inactive: dose: 75.0 mg/kg/injection, schedule: Q01DX001 (ip), vehicle: saline 98 % of control | dose: 150.0 mg/kg/injection, schedule: Q01DX001 (ip), vehicle: saline 93 % of control | dose: 300.0 mg/kg/injection, schedule: Q01DX001 (ip), vehicle: saline 94 % of control

CNc1nc(=O)n(C2CCCO2)cc1C (centres undefined)
inactive: [4] 90 % of control | [5] 98 % of control | [6] 95 % of control

CCN(C(=S)Nc1cccc(OC)c1)c1ccccc1
inactive: [7] 90 % of control | [8] 94 % of control

CCOC(=O)Nc1ccc(NC(=O)OCC)cc1
inactive: [7] 89 % of control | [1] 96 % of control | [8] 89 % of control | [2] 93 % of control | [3] 111 % of control

Oc1ccccc1C1=NCCN1
inactive: dose: 50.0 mg/kg/injection, schedule: Q04DX002 (ip), vehicle: Klucel (hydroxypropylcellulose) (HPC) 102 % of control | dose: 100.0 mg/kg/injection, schedule: Q04DX002 (ip), vehicle: Klucel (hydroxypropylcellulose) (HPC) 95 % of control | dose: 200.0 mg/kg/injection, schedule: Q04DX002 (ip), vehicle: Klucel (hydroxypropylcellulose) (HPC) 91 % of control

N#CC(c1ccccc1)C(c1ccccc1)C(C(=O)c1ccccc1)c1ccccc1 (centres undefined)
inactive: [9] 100 % of control | [10] 93 % of control | dose: 400.0 mg/kg/injection, schedule: Q01DX009 (ip), vehicle: saline with Tween-80 90 % of control

C=CCc1c(O)c(OC)cc2c1C(=O)CCCC2
inactive: dose: 50.0 mg/kg/injection, schedule: Q01DX009 (ip), vehicle: saline with Tween-80 93 % of control | [9] 93 % of control | [10] 93 % of control

CCOC(=O)C1=CC2(c3ccccc3)CC1(c1ccccc1)C(c1ccccc1)=C2c1ccccc1 (centres undefined)
inactive: dose: 50.0 mg/kg/injection, schedule: Q01DX001 (ip), vehicle: carboxymethylcellulose (CMC) 97 % of control | dose: 100.0 mg/kg/injection, schedule: Q01DX001 (ip), vehicle: carboxymethylcellulose (CMC) 92 % of control | dose: 200.0 mg/kg/injection, schedule: Q01DX001 (ip), vehicle: carboxymethylcellulose (CMC) 94 % of control | dose: 400.0 mg/kg/injection, schedule: Q01DX001 (ip), vehicle: carboxymethylcellulose (CMC) 89 % of control

CCOC(=O)/C(Br)=C/SCCN
inactive: dose: 100.0 mg/kg/injection, schedule: Q01DX009 (ip), vehicle: saline 97 % of control | [11] 92 % of control | dose: 400.0 mg/kg/injection, schedule: Q01DX009 (ip), vehicle: saline 91 % of control

CN(C)N=Nc1ccccc1[N+](=O)[O-]
inactive: dose: 30.0 mg/kg/injection, schedule: Q01DX009 (ip), vehicle: saline with Tween-80 99 % of control | dose: 50.0 mg/kg/injection, schedule: Q01DX001 (ip), vehicle: saline 103 % of control | dose: 53.0 mg/kg/injection, schedule: Q01DX009 (ip), vehicle: saline with Tween-80 118 % of control | dose: 60.0 mg/kg/injection, schedule: Q01DX009 (ip), vehicle: saline with Tween-80 106 % of control | [4] 101 % of control | dose: 119.0 mg/kg/injection, schedule: Q04DX003 (ip), vehicle: saline 107 % of control | dose: 120.0 mg/kg/injection, schedule: Q01DX009 (ip), vehicle: saline with Tween-80 113 % of control | dose: 178.0 mg/kg/injection, schedule: Q04DX003 (ip), vehicle: saline 118 % of control | dose: 267.0 mg/kg/injection, schedule: Q04DX003 (ip), vehicle: saline 92 % of control

Cc1cc([N+](=O)[O-])ccc1NC(=O)c1c(Cl)c(Cl)c(C(=O)Nc2ccc([N+](=O)[O-])cc2C)c(Cl)c1Cl
inactive: [7] 101 % of control | [8] 94 % of control | [12] 103 % of control

c1ccc(CN2C3C(c4ccccc4)=NN=C(c4ccccc4)C32)cc1 (centres undefined)
inactive: [4] 98 % of control | [5] 102 % of control | [6] 102 % of control

Cc1cc(S(=O)(=O)NO)c(N)cc1Cl
inactive: dose: 50.0 mg/kg/injection, schedule: Q01DX009 (ip), vehicle: Klucel (hydroxypropylcellulose) (HPC) 108 % of control | [7] 99 % of control | [8] 99 % of control

ONc1ncnc2nc[nH]c12
inactive: dose: 7.5 mg/kg/injection, schedule: Q01DX009 (ip), vehicle: Klucel (hydroxypropylcellulose) (HPC) 121 % of control | dose: 15.0 mg/kg/injection, schedule: Q01DX009 (ip), vehicle: Klucel (hydroxypropylcellulose) (HPC) 119 % of control | dose: 30.0 mg/kg/injection, schedule: Q01DX009 (ip), vehicle: Klucel (hydroxypropylcellulose) (HPC) 117 % of control | dose: 50.0 mg/kg/injection, schedule: Q01DX009 (ip), vehicle: saline 114 % of control | dose: 60.0 mg/kg/injection, schedule: Q01DX009 (ip), vehicle: Klucel (hydroxypropylcellulose) (HPC) 121 % of control | [4] 110 % of control | [5] 112 % of control | [11] 114 % of control | [6] 114 % of control

CC(C)N(C(=O)Nc1ccccc1Cl)c1ccccc1
inactive: [7] 96 % of control | [1] 92 % of control | [8] 92 % of control | [2] 100 % of control | [12] 97 % of control | [3] 92 % of control

CCOP(=O)(OCC)N1C(=O)CCC1=O
inactive: dose: 6.25 mg/kg/injection, schedule: Q04DX003 (ip), vehicle: saline 105 % of control | dose: 12.5 mg/kg/injection, schedule: Q04DX003 (ip), vehicle: saline 100 % of control | dose: 13.75 mg/kg/injection, schedule: Q01DX009 (ip), vehicle: saline 88 % of control | dose: 25.0 mg/kg/injection, schedule: Q04DX003 (ip), vehicle: saline 103 % of control | dose: 27.5 mg/kg/injection, schedule: Q01DX009 (ip), vehicle: saline 94 % of control | dose: 35.0 mg/kg/injection, schedule: Q04DX003 (ip), vehicle: saline 102 % of control | dose: 55.0 mg/kg/injection, schedule: Q04DX003 (ip), vehicle: saline 101 % of control

c1ccc2c3c(ccc2c1)-c1oncc1CC3
inactive: [4] 95 % of control | [5] 103 % of control | [6] 93 % of control

CN(C)CC(Oc1ccccc1)c1ccccc1 (centres undefined)
inactive: dose: 100.0 mg/kg/injection, schedule: Q04DX002 (ip), vehicle: saline 98 % of control
